How the values were obtained:
[1] = test system: common ragweed; assay: Test F preemergence test; type: in vivo, Ambrosia elation; conditions: scale 0 to 100; for Ragweed plant response rating: 125 g ai/ha
Source text: (§1) Seeds of plant species selected from bermudagrass (Cynodon dactylon), Surinam grass (Brachiaria decumbens), large crabgrass (Digitaria sanguinalis), green foxtail (Setaria viridis), goosegrass (Eleusine indica), johnsongrass (Sorghum halepense), kochia (Kochia scoparia), pitted morningglory (Ipomoea lacunosa), purple nutsedge (Cyperus rotundus), common ragweed (Ambrosia elation), mustard (Brassica nigra), guineagrass (Panicum maximum), […] (Paspalum dilatatum), barnyardgrass (Echinochloa crus-galli), southern sandbur (Cenchrus echinatus), common sowthistle (Sonchus oleraceous), prickly […] spinosa), Italian ryegrass (Lolium multiflorum), common purslane (Portulaca oleracea), broadleaf signalgrass (Brachiaria platyphylla), common groundsel (Senecio vulgaris), common chickweed (Stellaria media), Virginia dayflower (Commelina virginica), annual bluegrass (Poa annua), naked crabgrass (Digitaria nuda), […] cochinchinensis), quackgrass (Elytrigia repens), Canada horseweed (Conyza canadensis), field bindweed (Convolvulus arvensis), […] (Bidens bipinnata), common mallow (Malva sylvestris), Russian thistle (Salsola kali), and sugarcane (Saccharum officinarum) were planted and treated preemergence with test chemicals formulated in a non-phytotoxic solvent mixture which included a surfactant. At a different time, sugarcane was treated with postemergence applications of some of the test chemicals formulated in the same manner. Plants were approximately 3- to 4-leaf stage for the postemergence treatments. Treated plants and controls were maintained in a greenhouse for 14 to 21 days, after which time all species were compared to controls and visually evaluated. […] A dash (-) response means no test result.

[2] = test system: common ragweed; assay: Test C pre-/postemergence test; type: in vivo, Ambrosia elation
In short: (§2)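 Test chemicals were formulated with surfactant in a non-phytotoxic solvent and sprayed both on freshly planted seeds (preemergence) and on 1- to 4-leaf plants of 2–18 cm (postemergence). Flooded-paddy pots received compound directly into 3 cm of standing water, maintained for the test.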

[3] = test system: itchgrass; assay: Test F preemergence test; type: in vivo, Rottboellia cochinchinensis; conditions: scale 0 to 100
In short: (§3)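 Greenhouse screen: test chemical in surfactant-containing non-phytotoxic solvent applied preemergence to sown seeds or postemergence to sugarcane plants; after 14 to 21 days each species scored visually versus controls.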

[4] = test system: bermudagrass; assay: Test F preemergence test; type: in vivo, Cynodon dactylon; conditions: scale 0 to 100
In short: as §3

[5] = test system: kochia; assay: Test C pre-/postemergence test; type: in vivo, Kochia scoparia; conditions: for Plant response rating, Kochia: 31 g ai/ha, scale 0 to 100 (0 no effect, 100 complete control)
In short: as §2

[6] = test system: yellow nutsedge; assay: Test C pre-/postemergence test; type: in vivo, Cyperus esculentus; conditions: for Plant response rating, Nutsedge, Yellow: 31 g ai/ha, scale 0 to 100 (0 no effect, 100 complete control)
In short: as §2

[7] = test system: pitted morningglory; assay: Test F preemergence test; type: in vivo, Ipomoea lacunosa; conditions: scale 0 to 100
Source text: as §1

[8] = test system: broadleaf signalgrass; assay: Test F preemergence test; type: in vivo, Brachiaria platyphylla; conditions: scale 0 to 100; for Signalgrass plant response rating: 125 g ai/ha
In short: as §3

[9] = test system: prickly sida; assay: Test F preemergence test; type: in vivo, Sida spinosa; conditions: scale 0 to 100
In short: as §3

[10] = test system: purple nutsedge; assay: Test F preemergence test; type: in vivo, Cyperus rotundus; conditions: scale 0 to 100
In short: as §3

[11] = test system: goosegrass; assay: Test F preemergence test; type: in vivo, Eleusine indica; conditions: scale 0 to 100
In short: as §3

[12] = test system: naked crabgrass; assay: Test F preemergence test; type: in vivo, Digitaria nuda; conditions: scale 0 to 100
In short: as §3

[13] = test system: green foxtail; assay: Test F preemergence test; type: in vivo, Setaria viridis; conditions: scale 0 to 100
In short: as §3

[14] = test system: crabgrass; assay: Test A pre-/postemergence greenhouse test; type: in vivo, Digitaria sanguinalis; conditions: for Plant response rating, Crabgrass, Large: 0 to 100 scale where 0 is no effect and 100 is complete control; for Crabgrass, Large plant response rating: 0 to 100 scale
In short: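 Visual injury ratings, made relative to untreated controls roughly ten days after treatment, cover both preemergence and postemergence application. Compounds in a surfactant-containing non-phytotoxic solvent were sprayed onto the soil surface after sowing and, simultaneously, onto young plants at the one- to two-leaf stage.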

[15] = 125 g ai/ha, preemergence, scale 0 (no effect) to 100 (complete control)
[16] = preemergence, 250 g ai/ha, scale 0 (no effect) to 100 (complete control)
[17] = 62 g ai/ha, Preemergence, scale 0 to 100
[18] = Postemergence, 500 g ai/ha, 0 is no effect, 100 is complete control
[19] = Preemergence, 125 g ai/ha, 0 no effect, 100 complete control

CC(Oc1c(C[S+]([O-])c2ccc(Cl)c[n+]2[O-])c(C(F)(F)F)nn1C)C(F)(F)F (stereo not drawn) [Compound 87]
98: Foxtail, Green plant response rating ([13]; 125 g ai/ha, preemergence)
90: Ragweed plant response rating ([1]; preemergence) | Morningglory plant response rating ([7]; 125 g ai/ha, preemergence) | Crabgrass, Large plant response rating [14, 18] | Crabgrass, Large plant response rating [14, 19]
85: Plant response rating, Itchgrass ([3]; Preemergence, 31 g ai/ha)
0: Plant response rating, Ragweed ([1]; 16 g ai/ha, preemergence) | Plant response rating, Ragweed ([1]; Preemergence, 31 g ai/ha) | Plant response rating, Morningglory ([7]; 16 g ai/ha, preemergence) | Plant response rating, Morningglory ([7]; Preemergence, 31 g ai/ha) | Plant response rating, Signalgrass ([8]; 16 g ai/ha, preemergence) | Plant response rating, Prickly Sida ([9]; 16 g ai/ha, preemergence)
50: Plant response rating, Kochia ([5]; Preemergence) | Nutsedge, Yellow plant response rating [6, 17] | Plant response rating, Nutsedge, Yellow ([6]; Preemergence) | Plant response rating, Prickly Sida ([9]; Preemergence, 31 g ai/ha)
95: Bermudagrass plant response rating ([4]; 125 g ai/ha, preemergence) | Kochia plant response rating [5, 16] | Signalgrass plant response rating ([8]; preemergence) | Plant response rating, Goosegrass ([11]; Preemergence, 62 g ai/ha) | Plant response rating, Crabgrass, Naked ([12]; 16 g ai/ha, preemergence)
60: Plant response rating, Bermudagrass ([4]; Preemergence, 31 g ai/ha) | Plant response rating, Purple Nutsedge ([10]; Preemergence, 31 g ai/ha)
75: Kochia plant response rating [5, 17] | Plant response rating, Prickly Sida ([9]; Preemergence, 62 g ai/ha)
65: Plant response rating, Signalgrass ([8]; Preemergence, 62 g ai/ha) | Plant response rating, Foxtail, Green ([13]; Preemergence, 31 g ai/ha)
100: Itchgrass plant response rating ([3]; 125 g ai/ha, preemergence) | Plant response rating, Itchgrass ([3]; Preemergence, 62 g ai/ha) | Nutsedge, Yellow plant response rating [6, 16] | Prickly Sida plant response rating ([9]; 125 g ai/ha, preemergence) | Goosegrass plant response rating ([11]; 125 g ai/ha, preemergence) | Crabgrass, Naked plant response rating ([12]; 125 g ai/ha, preemergence) | Plant response rating, Crabgrass, Naked ([12]; Preemergence, 62 g ai/ha) | Plant response rating, Crabgrass, Naked ([12]; Preemergence, 31 g ai/ha) | Plant response rating, Crabgrass, Large ([14]; Preemergence, 500 g ai/ha)
15: Plant response rating, Signalgrass ([8]; Preemergence, 31 g ai/ha)
25: Plant response rating, Bermudagrass ([4]; 16 g ai/ha, preemergence)
80: Ragweed plant response rating [2, 16] | Kochia plant response rating [5, 15] | Nutsedge, Yellow plant response rating [6, 15] | Purple Nutsedge plant response rating ([10]; 125 g ai/ha, preemergence) | Plant response rating, Goosegrass ([11]; Preemergence, 31 g ai/ha) | Plant response rating, Foxtail, Green ([13]; Preemergence, 62 g ai/ha) | Plant response rating, Crabgrass, Large ([14]; Postemergence, 125 g ai/ha)
35: Plant response rating, Itchgrass ([3]; 16 g ai/ha, preemergence) | Plant response rating, Morningglory ([7]; Preemergence, 62 g ai/ha) | Plant response rating, Foxtail, Green ([13]; 16 g ai/ha, preemergence)
70: Plant response rating, Ragweed ([1]; Preemergence, 62 g ai/ha) | Ragweed plant response rating [2, 15] | Plant response rating, Bermudagrass ([4]; Preemergence, 62 g ai/ha) | Plant response rating, Purple Nutsedge ([10]; Preemergence, 62 g ai/ha) | Plant response rating, Goosegrass ([11]; 16 g ai/ha, preemergence)

CCn1nc(C(F)(F)F)c(C[S+]([O-])c2cc(C)cc[n+]2[O-])c1OCC(F)(F)F (racemic) [Compound 66]
100: Ragweed plant response rating [2, 17] | Plant response rating, Ragweed ([2]; Preemergence, 31 g ai/ha, scale 0 to 100 (0 no effect, 100 complete control)) | Ragweed plant response rating [2, 16] | Kochia plant response rating [5, 17] | Kochia plant response rating [5, 15] | Plant response rating, Kochia ([5]; Preemergence) | Kochia plant response rating [5, 16] | Morningglory plant response rating ([7]; 125 g ai/ha, preemergence) | Purple Nutsedge plant response rating ([10]; 125 g ai/ha, preemergence) | Goosegrass plant response rating ([11]; 125 g ai/ha, preemergence) | Crabgrass, Naked plant response rating ([12]; 62 g ai/ha, Preemergence) | Crabgrass, Naked plant response rating ([12]; 125 g ai/ha, preemergence) | Foxtail, Green plant response rating ([13]; 125 g ai/ha, preemergence) | Plant response rating, Crabgrass, Large ([14]; Preemergence, 500 g ai/ha)
50: Plant response rating, Itchgrass ([3]; Preemergence, 31 g ai/ha) | Nutsedge, Yellow plant response rating [6, 16] | Plant response rating, Crabgrass, Large ([14]; Postemergence, 125 g ai/ha)
90: Itchgrass plant response rating ([3]; 125 g ai/ha, preemergence) | Foxtail, Green plant response rating ([13]; 62 g ai/ha, Preemergence) | Crabgrass, Large plant response rating [14, 18]
60: Plant response rating, Bermudagrass ([4]; Preemergence, 31 g ai/ha) | Purple Nutsedge plant response rating ([10]; 62 g ai/ha, Preemergence) | Plant response rating, Goosegrass ([11]; Preemergence, 31 g ai/ha) | Plant response rating, Foxtail, Green ([13]; Preemergence, 31 g ai/ha)
20: Plant response rating, Prickly Sida ([9]; 16 g ai/ha, preemergence) | Plant response rating, Prickly Sida ([9]; Preemergence, 31 g ai/ha)
95: Signalgrass plant response rating ([8]; preemergence)
25: Plant response rating, Purple Nutsedge ([10]; 16 g ai/ha, preemergence) | Plant response rating, Crabgrass, Naked ([12]; Preemergence, 31 g ai/ha)
70: Plant response rating, Ragweed ([1]; Preemergence, 62 g ai/ha) | Plant response rating, Ragweed ([1]; Preemergence, 31 g ai/ha) | Itchgrass plant response rating ([3]; 62 g ai/ha, Preemergence)
65: Plant response rating, Morningglory ([7]; Preemergence, 31 g ai/ha) | Plant response rating, Signalgrass ([8]; Preemergence, 62 g ai/ha)
80: Ragweed plant response rating ([1]; preemergence) | Morningglory plant response rating ([7]; 62 g ai/ha, Preemergence) | Crabgrass, Large plant response rating [14, 19]
98: Bermudagrass plant response rating ([4]; 125 g ai/ha, preemergence) | Prickly Sida plant response rating ([9]; 125 g ai/ha, preemergence)
75: Bermudagrass plant response rating ([4]; 62 g ai/ha, Preemergence) | Prickly Sida plant response rating ([9]; 62 g ai/ha, Preemergence) | Goosegrass plant response rating ([11]; 62 g ai/ha, Preemergence)
10: Plant response rating, Foxtail, Green ([13]; 16 g ai/ha, preemergence)
40: Plant response rating, Bermudagrass ([4]; 16 g ai/ha, preemergence) | Nutsedge, Yellow plant response rating [6, 15] | Plant response rating, Purple Nutsedge ([10]; Preemergence, 31 g ai/ha) | Plant response rating, Goosegrass ([11]; 16 g ai/ha, preemergence)
30: Nutsedge, Yellow plant response rating [6, 17] | Plant response rating, Nutsedge, Yellow ([6]; Preemergence) | Plant response rating, Signalgrass ([8]; 16 g ai/ha, preemergence) | Plant response rating, Signalgrass ([8]; Preemergence, 31 g ai/ha)
0: Plant response rating, Ragweed ([1]; 16 g ai/ha, preemergence) | Plant response rating, Itchgrass ([3]; 16 g ai/ha, preemergence) | Plant response rating, Morningglory ([7]; 16 g ai/ha, preemergence) | Plant response rating, Crabgrass, Naked ([12]; 16 g ai/ha, preemergence)

Source: US20100298141A1, “SUBSTITUTED PYRIDINE N-OXIDE HERBICIDES” (E. I. DU PONT DE NEMOURS AND COMPANY, priority 2007, published 2010)
